Assay results from patent US12390451B2, “Small molecule inhibitor of the JAK family of kinases” (Janssen Pharmaceutica NV, priority 2021, dated 2025).
Where two headings read alike, the source gives them in different places.

Experiments:
[1] = tested on: IL-22/IL-6/IFNα-induced pSTAT-3 response; assay: Ex vivo mouse colon explant model (IL-22/IL-6/IFNα) after oral dosing; assay type: in vivo, C57BL/6 mice; settings: for inhibition at 0.5 mg/kg: oral 0.5 mg/kg; for inhibition at 2.5 mg/kg: oral 2.5 mg/kg; for inhibition at 5 mg/kg: oral 5 mg/kg; for inhibition at 25 mg/kg: oral 25 mg/kg
From the text: To understand the potential of local, enteric-selective JAK inhibitors to inhibit STAT signaling in colon tissue, two pharmacokinetic/pharmacodynamic (PK/PD) studies were developed. The first involved the combined intraperitoneal administration of IL-12 and IL-18 in mice which induces a systemic inflammatory response resulting in activation of the JAK/STAT pathway in colonic tissue which can be monitored by robust phosphorylation of STAT3 three hours after challenge. The second PK/PD model involves the ex vivo stimulation of mouse colon tissue with a cocktail of cytokines (IL-22, IL-6, and IFNα), measuring the inhibition of STAT3 phosphorylation after oral dosing of compound of Formula I.
In addition to the IL-12/IL-18 model described above, local efficacy of compound of Formula I was further established in a mouse cytokine mixture (IL-22/IL-6/IFNα) colon explant model. A combination of IL-22, IL-6 and IFNα induced a rapid and robust pSTAT-3 response in mouse colon explants ex vivo 1 hour post challenge. This study aimed at examining the dose response and duration of action of compound of Formula I on IL 22/IL 6/IFNα-induced pSTAT-3 response in an ex vivo mouse colon explant model.
C57BL/6 mice (6 to 8 weeks old) were randomized by weight and assigned to various treatment groups for each study. Mice were dosed orally with indicated doses of compound of Formula I. At the termination of the study, blood was collected via cardiocentesis, serum and washed proximal colon was prepared for PK analysis.
Distal colon explants (approximately 3 mm^2) were either untreated or treated with cytokines (IL 6, IL-22, IFNα at 100 ng/mL each). Following stimulation for 1 hour, tissue was snap-frozen for homogenization and assayed for pSTAT-3.

[2] = Serum and colonic concentrations in IL-12/IL-18 studies S-1 and S-2; assay type: in vivo, C57BL/6 mice; settings: mice, mean±SEM; for concentration at 4 h / concentration at 30 min: C57BL/6, mouse, po; for concentration at 30 min: read-out: Serum 30 min post dosing
Protocol: C57BL/6 mice (6 to 8 weeks old) were randomized by weight and assigned to various treatment groups for each of two studies. Mice were challenged intraperitoneally with a combination of IL-12 (250 ng) and IL-18 (1 μg). To examine the effect of compound of Formula I on IL-12/IL-18-induced pSTAT-3 response, groups of mice were orally dosed with compound of Formula I 1 hour prior to IL-12/IL-18 challenge. Three hours after IL-12/IL-18 challenge, mice were euthanized with CO2 asphyxiation, blood was collected via cardiocentesis for PK analysis, and colon tissues were collected for measuring pSTAT-3 response and drug levels. Mice dosed orally with 20% 2-hydroxypropyl-β-cyclodextrin (HP-β-CD) were used as vehicle controls. Two independent studies (S-1 and S-2) were conducted to examine the effect of compound of Formula I on IL-12/IL-18-induced colonic pSTAT-3 response in mice. […] Serum levels were measured at 30 minutes and 4 hours (terminal) after dosing. […] Colon drug levels were measured 4 hours after dosing. […] Colonic exposure of compound of Formula I increased in a dose-dependent fashion. At 25 mg/kg dose, colonic exposure of compound of Formula I was 30814.5±5552.5 ng/g and 18256.5±4118.8 ng/g tissue. […] Oral dosing of compound of Formula I in mice resulted, as shown in other studies, in minimum systemic exposure and lack of consistent dose-dependent pharmacodynamic responses in the blood.
Data are presented as mean±SEM; N=3-7/group. BLOQ, below limit of quantification; min, minutes; h, hour(s).
Data are presented as mean±SEM; N=3 to 7/group. BLOQ, below limit of quantification; min, minutes; h, hour(s).

[3] = SS-1, mice, read-out: inhibition of IL-22/IL-6/IFNα-stimulated pSTAT-3 response in colon explants
[4] = SS-1, mice, read-out: inhibition of basal pSTAT-3 response in colon explants
[5] = SS-2, mice, read-out: inhibition of IL-22/IL-6/IFNα-stimulated pSTAT-3 in colon explants
[6] = SS-2, mice, read-out: inhibition of basal pSTAT-3 in colon explants

concentration at 4 h ([2]; colon, 10 mg/kg, S-1, oral 10 mg/kg, read-out: Colon 4 h post dosing): 6600 ± 787 ng/g
concentration at 4 h ([2]; colon, 10 mg/kg, S-2, oral 10 mg/kg, read-out: Colon 4 h post dosing): 10100 ± 1300 ng/g
concentration at 4 h ([2]; colon, 25 mg/kg, S-1, oral 25 mg/kg, read-out: Colon 4 h post dosing): 30800 ± 5550 ng/g
concentration at 4 h ([2]; colon, 25 mg/kg, S-2, oral 25 mg/kg, read-out: Colon 4 h post dosing): 18300 ± 4120 ng/g
concentration at 4 h ([2]; colon, 50 mg/kg, S-1, oral 50 mg/kg, read-out: Colon 4 h post dosing): 59600 ± 11300 ng/g
concentration at 4 h ([2]; colon, 50 mg/kg, S-2, oral 50 mg/kg, read-out: Colon 4 h post dosing): 35600 ± 5560 ng/g
concentration at 30 min ([2]; serum, 10 mg/kg, S-1, oral 10 mg/kg): 7.4 ± 1.4 nM
concentration at 30 min ([2]; serum, 10 mg/kg, S-2, oral 10 mg/kg): 7 ± 0.7 nM
concentration at 30 min ([2]; serum, 25 mg/kg, S-1, oral 25 mg/kg): 21.8 ± 5.5 nM
concentration at 4 h ([2]; serum, 25 mg/kg, S-1, oral 25 mg/kg, read-out: Serum 4 h post dosing): 25 ± 20.3 nM
concentration at 30 min ([2]; serum, 25 mg/kg, S-2, oral 25 mg/kg): 70.5 ± 60.4 nM
concentration at 4 h ([2]; serum, 25 mg/kg, S-2, oral 25 mg/kg, read-out: Serum 4 h post dosing): 45.1 ± 24 nM
concentration at 30 min ([2]; serum, 50 mg/kg, S-1, oral 50 mg/kg): 122 ± 87.2 nM
concentration at 4 h ([2]; serum, 50 mg/kg, S-1, oral 50 mg/kg, read-out: Serum 4 h post dosing): 19.7 ± 8 nM
concentration at 30 min ([2]; serum, 50 mg/kg, S-2, oral 50 mg/kg): 38.8 ± 7.4 nM
concentration at 4 h ([2]; serum, 50 mg/kg, S-2, oral 50 mg/kg, read-out: Serum 4 h post dosing): 131 ± 108 nM
Serum 4 h post dosing ([2]; S-1, oral 10 mg/kg): BLOQ
Serum 30 min post dosing ([2]; S-1, oral 10 mg/kg, 10 mg/kg): 7.4 ± 1.4 nM
Colon 4 h post dosing ([2]; S-1, oral 25 mg/kg, 25 mg/kg): 30814.5 ± 5552.5 ng/g
Serum 30 min post dosing ([2]; S-1, oral 25 mg/kg, 25 mg/kg): 21.8 ± 5.5 nM
Serum 30 min post dosing ([2]; S-1, oral 50 mg/kg, 50 mg/kg): 121.7 ± 87.2 nM
Serum 4 h post dosing ([2]; S-2, oral 10 mg/kg): BLOQ
Serum 30 min post dosing ([2]; S-2, oral 10 mg/kg, 10 mg/kg): 7.0 ± 0.7 nM
Colon 4 h post dosing ([2]; S-2, oral 25 mg/kg, 25 mg/kg): 18256.5 ± 4118.8 ng/g
Serum 30 min post dosing ([2]; S-2, oral 25 mg/kg, 25 mg/kg): 70.5 ± 60.4 nM
Serum 30 min post dosing ([2]; S-2, oral 50 mg/kg, 50 mg/kg): 38.8 ± 7.4 nM
Compound: CC(C)(O)CNC(=O)Cc1nc2cnc3[nH]ccc3c2n1[C@H]1CC[C@H](CC#N)CC1 [Compound of Formula I, 2-(1-((1r,4r)-4-(Cyanomethyl)cyclohexyl)-1,6-dihydroimidazo[4,5-d]pyrrolo[2,3-b]pyridin-2-yl)-N-(2-hydroxy-2-methylpropyl)acetamide]
inhibition at 0.5 mg/kg [1, 3]: 42.7%
inhibition at 0.5 mg/kg [1, 4]: 54.3%
inhibition at 2.5 mg/kg [1, 3]: 74.9%
inhibition at 2.5 mg/kg [1, 4]: 74.4%
inhibition at 5 mg/kg [1, 3]: 83.8%
inhibition at 5 mg/kg [1, 4]: 78.6%
inhibition at 25 mg/kg [1, 3]: 93.8%
inhibition at 25 mg/kg [1, 4]: 89.5%
inhibition at 0.5 mg/kg [1, 5]: 5.5%
inhibition at 0.5 mg/kg [1, 6]: 36.7%
inhibition at 2.5 mg/kg [1, 5]: 62%
inhibition at 2.5 mg/kg [1, 6]: 66.2%
inhibition at 5 mg/kg [1, 5]: 68.1%
inhibition at 5 mg/kg [1, 6]: 71.3%
inhibition at 25 mg/kg [1, 5]: 89.8%
inhibition at 25 mg/kg [1, 6]: 83.8%
